Bounds are passed on as bounds.

The assay deals with c-Myc. Kind of assay: c-Myc ELISA assay protocol in 22RV-1 cells. It is filed as cell-based, human. The conditions noted are these: 18 h, read-out: cMyc IC50. The procedure:
In each bioassay, cells were treated with varying amounts of compounds encompassed by the present disclosure, as shown in Table 1. The degradation of the following proteins were evaluated in this study: TANK-binding kinase 1 (TBK1), estrogen receptor α (ERα), bromodomain-containing protein 4 (BRD4), androgen receptor (AR), and c-Myc.
5. c-Myc ELISA Assay Protocol
22RV-1 cells were purchased from ATCC and cultured in RPMI+10% FBS media. Cells were harvested using trypsin (Gibco #25200-114), counted and seeded at 30,000 cells/well at a volume of 75 μL/well in RPMI +10% FBS media in 96-well plates. The cells were dosed with compounds diluted in 0.1% DMSO, incubated for 18 h then washed and lysed in 50 uL RIPA buffer (50 mM Tris pH8, 150 mM NaCl, 1% Tx-100, 0.1% SDS, 0.5% sodium deoxycholate) supplemented with protease and phosphatase inhibitors. The lysates were clarified at 4000 rpm at 4° C. for 10 minutes then aliquots were added into a 96-well ELISA plate of Novex Human c-myc ELISA kit from Life Technologies Catalog #KHO2041. 50 ul of c-Myc Detection antibody was added into every well, the plates incubated at room temperature for 3 hrs, then washed with ELISA wash buffer. 100 uL of the anti-rabbit IgG-HRP secondary antibody was added to each well and incubated at room temperature for 30 minutes. The plates were washed with ELISA wash buffer, 100 μL TMB added to each well, and then monitored every 5 minutes for a color change. 100 μL of stop solution is added and the plates read at 450 nm.
A general note: In an ELISA, binding on a coated surface is turned into a signal by an enzyme label.
As to `Cc1sc2c(c1C)C(c1ccc(Cl)cc1)=N[C@@H](CC(=O)N[C@@H](C)c1ccc(OCCOCCNc3cccc4c3C(=O)N(C3CCC(=O)NC3=O)C4=O)c(F)c1)c1nnc(C)n1-2` (stereo partly drawn) [Compound 48, 2-[(9S)-7-(4-chlorophenyl)-4,5,13-trimethyl-3-thia-1,8,11,12-tetraazatricyclo [8.3.0.0^2,^6]trideca-2(6),4,7,10,12-pentaen-9-yl]-N-[(1S)-1-{4-[2-(2-{[2-(2,6-dioxopiperidin-3-yl)-1,3-dioxo-2,3-dihydro-1H-isoindol-4-yl]amino}ethoxy)ethoxy]-3-fluorophenyl}ethyl]acetamide], the IC50 was less than 0.05 µM.
Regarding `Cc1sc2c(c1C)C(c1ccc(Cl)cc1)=N[C@@H](CC(=O)Nc1ccc(OCCOCCOCCOCCNc3cccc4c3C(=O)N(C3(C)CCC(=O)NC3=O)C4=O)cc1)c1nnc(C)n1-2` (stereo partly drawn) [Compound 49, 2-[(9S)-7-(4-chlorophenyl)-4,5,13-trimethyl-3-thia-1,8,11,12-tetraazatricyclo [8.3.0.0^2,^6]trideca-2(6),4,7,10,12-pentaen-9-yl]-N-[4-({1-[2-(3-methyl-2,6-dioxopiperidin-3-yl)-1,3-dioxo-2,3-dihydro-1H-isoindol-4-yl]-4,7,10-trioxa-1-azadodecan-12-yl}oxy)phenyl] acetamide], the half-maximal inhibitory concentration (IC50) was greater than 0.05 µM.
The value for `Cc1sc2c(c1C)C(c1ccc(Cl)cc1)=N[C@@H](CC(=O)Nc1ccc(OCCOCCOCCOCCNc3cccc4c3C(=O)N(C3CCC(=O)N(C)C3=O)C4=O)cc1)c1nnc(C)n1-2` (stereo partly drawn) [Compound 50, 2-[(9S)-7-(4-chlorophenyl)-4,5,13-trimethyl-3-thia-1,8,11,12-tetraazatricyclo [8.3.0.0^2,^6]trideca-2(6),4,7,10,12-pentaen-9-yl]-N-[4-({1-[2-(1-methyl-2,6-dioxopiperidin-3-yl)-1,3-dioxo-2,3-dihydro-1H-isoindol-4-yl]-4,7,10-trioxa-1-azadodecan-12-yl}oxy)phenyl] acetamide] was greater than 0.05 µM.
The value for `Cc1sc2c(c1C)C(c1ccc(Cl)cc1)=N[C@@H](CC(=O)N[C@H](C)c1cccc(OCCCNc3cccc4c3CN(C3CCC(=O)NC3=O)C4=O)c1)c1nnc(C)n1-2` (stereo partly drawn) [Compound 51, 2-[(9S)-7-(4-chlorophenyl)-4,5,13-trimethyl-3-thia-1,8,11,12-tetraazatricyclo [8.3.0.0^2,^6]trideca-2(6),4,7,10,12-pentaen-9-yl]-N-[(1R)-1-[3-(3-{[2-(2,6-dioxopiperidin-3-yl)-1-oxo-2,3-dihydro-1H-isoindol-4-yl]amino}propoxy)phenyl]ethyl] acetamide] was greater than 0.05 µM; that for `Cc1sc2c(c1C)C(c1ccc(Cl)cc1)=N[C@@H](CC(=O)N[C@H]1CCN(C(=O)c3ccc(NCCNc4cccc5c4C(=O)N(C4CCC(=O)NC4=O)C5=O)cc3)C1)c1nnc(C)n1-2` (stereo partly drawn) [Compound 52, 2-[(9S)-7-(4-chlorophenyl)-4,5,13-trimethyl-3-thia-1,8,11,12-tetraazatricyclo [8.3.0.0^2,^6]trideca-2(6),4,7,10,12-pentaen-9-yl]-N-[(3S)-1-{4-[(2-{[2-(2,6-dioxopiperidin-3-yl)-1,3-dioxo-2,3-dihydro-1H-isoindol-4-yl]amino}ethyl)amino]benzoyl}pyrrolidin-3-yl]acetamide] was greater than 0.05 µM.
On to `Cc1sc2c(c1C)C(c1ccc(Cl)cc1)=N[C@@H](CC(=O)NCCOCCNc1cccc3nc(C)n(C4CCC(=O)NC4=O)c(=O)c13)c1nnc(C)n1-2` (stereo partly drawn) [Compound 53, 2-[(9S)-7-(4-chlorophenyl)-4,5,13-trimethyl-3-thia-1,8,11,12-tetraazatricyclo [8.3.0.0^2,^6]trideca-2(6),4,7,10,12-pentaen-9-yl]-N-[2-(2-{[3-(2,6-dioxopiperidin-3-yl)-2-methyl-4-oxo-3,4-dihydroquinazolin-5-yl]amino}ethoxy)ethyl]acetamide], for which the IC50 was greater than 0.05 µM.
The value for `Cc1sc2c(c1C)C(c1ccc(Cl)cc1)=N[C@@H](CC(=O)NCCCOCCCNc1cccc3c1CN(C1CCC(=O)NC1=O)C3=O)c1nnc(C)n1-2` (stereo partly drawn) [Compound 54, 2-[(9S)-7-(4-chlorophenyl)-4,5,13-trimethyl-3-thia-1,8,11,12-tetraazatricyclo [8.3.0.0^2,^6]trideca-2(6),4,7,10,12-pentaen-9-yl]-N-[3-(3-{[2-(2,6-dioxopiperidin-3-yl)-1-oxo-2,3-dihydro-1H-isoindol-4-yl]amino}propoxy)propyl]acetamide] was less than 0.05 µM.
Regarding `Cc1sc2c(c1C)C(c1ccc(Cl)cc1)=N[C@@H](CC(=O)N[C@H]1CCN(C(=O)c3ccc(OCCNc4cccc5c4C(=O)N(C4CCC(=O)NC4=O)C5=O)cc3)C1)c1nnc(C)n1-2` (stereo partly drawn) [Compound 55, 2-[(9S)-7-(4-chlorophenyl)-4,5,13-trimethyl-3-thia-1,8,11,12-tetraazatricyclo [8.3.0.0^2,^6]trideca-2(6),4,7,10,12-pentaen-9-yl]-N-[(3S)-1-[4-(2-{[2-(2,6-dioxopiperidin-3-yl)-1,3-dioxo-2,3-dihydro-1H-isoindol-4-yl]amino}ethoxy)benzoyl]pyrrolidin-3-yl]acetamide], the IC50 is less than 0.05 µM.
With `Cc1sc2c(c1C)C(c1ccc(Cl)cc1)=N[C@@H](CC(=O)Nc1ccc(OCCOCCOCCNc3cccc4nc(C)n(C5CCC(=O)NC5=O)c(=O)c34)cc1)c1nnc(C)n1-2` (stereo partly drawn) [Compound 56, 2-[(9S)-7-(4-chlorophenyl)-4,5,13-trimethyl-3-thia-1,8,11,12-tetraazatricyclo [8.3.0.0^2,^6]trideca-2(6),4,7,10,12-pentaen-9-yl]-N-(4-{2-[2-(2-{[3-(2,6-dioxopiperidin-3-yl)-2-methyl-4-oxo-3,4-dihydroquinazolin-5-yl]amino}ethoxy)ethoxy]ethoxy}phenyl)acetamide] the figure was less than 0.05 µM; with `Cc1sc2c(c1C)C(c1ccc(Cl)cc1)=N[C@@H](CC(=O)NCCCCCNc1cccc3c1CN(C1CCC(=O)NC1=O)C3=O)c1nnc(C)n1-2` (stereo partly drawn) [Compound 57, 2-[(9S)-7-(4-chlorophenyl)-4,5,13-trimethyl-3-thia-1,8,11,12-tetraazatricyclo [8.3.0.0^2,^6]trideca-2(6),4,7,10,12-pentaen-9-yl]-N-(5-{[2-(2,6-dioxopiperidin-3-yl)-1-oxo-2,3-dihydro-1H-isoindol-4-yl]amino}pentyl) acetamide], less than 0.05 µM; with `Cc1sc2c(c1C)C(c1ccc(Cl)cc1)=N[C@@H](CC(=O)NCCCOCCCNc1cccc3nc(C)n(C4CCC(=O)NC4=O)c(=O)c13)c1nnc(C)n1-2` (stereo partly drawn) [Compound 58, 2-[(9S)-7-(4-chlorophenyl)-4,5,13-trimethyl-3-thia-1,8,11,12-tetraazatricyclo [8.3.0.0^2,^6]trideca-2(6),4,7,10,12-pentaen-9-yl]-N-[3-(3-{[3-(2,6-dioxopiperidin-3-yl)-2-methyl-4-oxo-3,4-dihydroquinazolin-5-yl]amino}propoxy)propyl]acetamide], greater than 0.05 µM.
With `Cc1sc2c(c1C)C(c1ccc(Cl)cc1)=N[C@@H](CC(=O)N[C@H]1CCN(C(=O)c3ccc(OCCNc4cccc5c4CN(C4CCC(=O)NC4=O)C5=O)cc3)C1)c1nnc(C)n1-2` (stereo partly drawn) [Compound 59, 2-[(9S)-7-(4-chlorophenyl)-4,5,13-trimethyl-3-thia-1,8,11,12-tetraazatricyclo [8.3.0.0^2,^6]trideca-2(6),4,7,10,12-pentaen-9-yl]-N-[(3S)-1-[4-(2-{[2-(2,6-dioxopiperidin-3-yl)-1-oxo-2,3-dihydro-1H-isoindol-4-yl]amino}ethoxy)benzoyl]pyrrolidin-3-yl]acetamide] the figure was greater than 0.05 µM.
Take `Cc1sc2c(c1C)C(c1ccc(Cl)cc1)=N[C@@H](CC(=O)N[C@H](C)c1cccc(OCCNc3cccc4c3CN(C3CCC(=O)NC3=O)C4=O)c1)c1nnc(C)n1-2` (stereo partly drawn) [Compound 60, 2-[(9S)-7-(4-chlorophenyl)-4,5,13-trimethyl-3-thia-1,8,11,12-tetraazatricyclo [8.3.0.0^2,^6]trideca-2(6),4,7,10,12-pentaen-9-yl]-N-[(1R)-1-[3-(2-{[2-(2,6-dioxopiperidin-3-yl)-1-oxo-2,3-dihydro-1H-isoindol-4-yl]amino}ethoxy)phenyl]ethyl] acetamide]: the IC50 is greater than 0.05 µM.

One may read the IC50 as the concentration needed to halve the response being measured.

Source of the values: patent US11834460B2, “Imide-based modulators of proteolysis and associated methods of use” (YALE UNIVERSITY, priority 2018, dated 2023).
